# Measured values as given in PubChem BioAssay (NCI).
# “And” between values parts separate entries of the source, which are not always exact repeats. Equal values may be shown once.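 Results reflect a 48-hour exposure of cells in 96-well plates to compound at five concentrations. The concentration for 50% growth inhibition is given as GI50. At the TGI there is no net growth.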
# Columns and labels:
# Test in all cases: growth of human tumour cells (NCI), 48 h
# DMS 114 small cell lung = system: DMS 114 small cell lung
# SF-539 CNS = system: SF-539 CNS
# HOP-18 NSCLC = system: HOP-18 NSCLC
# SK-MEL-5 melanoma = system: SK-MEL-5 melanoma
# DMS 273 small cell lung = system: DMS 273 small cell lung
# SW-620 colon = system: SW-620 colon
# SNB-78 CNS = system: SNB-78 CNS
# MOLT-4 leukemia = system: MOLT-4 leukemia
# DU-145 prostate = system: DU-145 prostate
# T-47D breast = system: T-47D breast
Compound,TGI (DMS 114 small cell lung) [µM],TGI (SF-539 CNS),TGI (HOP-18 NSCLC) [µM],TGI (SK-MEL-5 melanoma),TGI (DMS 273 small cell lung) [µM],TGI (SW-620 colon),TGI (SNB-78 CNS) [µM],TGI (MOLT-4 leukemia),GI50 (DMS 114 small cell lung) [µM],GI50 (SF-539 CNS) [µM],GI50 (HOP-18 NSCLC) [µM],GI50 (DU-145 prostate) [µM],TGI (DU-145 prostate),GI50 (SK-MEL-5 melanoma) [µM],GI50 (DMS 273 small cell lung) [µM],GI50 (SW-620 colon) [µM],GI50 (SNB-78 CNS) [µM],GI50 (T-47D breast) [µM],TGI (T-47D breast),GI50 (MOLT-4 leukemia) [µM]
Cc1ccccc1C(=O)c1cc(O)ccc1O,> 100,> 100 µM,> 100,> 100 µM,> 100,> 100 µM,> 100,> 100 µM,–,–,–,–,–,–,–,–,–,–,–,–
CC(C)(C)c1cc(C(P(=O)(O)O)P(=O)(O)O)cc(C(C)(C)C)c1O,> 100,> 100 µM,> 100,> 100 µM,> 100,> 100 µM,> 100,> 100 µM,–,–,–,–,–,–,–,–,–,–,–,–
CN(C)CCC(/C=C/c1ccccc1)=N\Nc1ccccc1,17.3,4.02 µM,16.6,13.1 µM,6.5,2.06 µM,14.7,15 µM,–,–,–,–,–,–,–,–,–,–,–,–
Cc1nc(Nc2ccc(Cl)cc2)sc1C(=O)NNC(=S)NN,39,31.8 µM,33.5,32.9 µM,36.2,38.1 µM,57.2,58.6 µM,–,–,–,–,–,–,–,–,–,–,–,–
COc1cc(OC)c2c(=O)cc(-c3ccc(OC)c(OC)c3OC)oc2c1,> 100,> 100 µM,–,–,–,> 100 µM,–,–,–,–,–,–,–,–,–,–,–,–,–,–
CSc1nc(SC)c2c(C#N)[nH]nc2n1,> 100,> 100 µM,–,> 100 µM,> 100,> 100 µM,> 100,> 100 µM,–,–,–,–,–,–,–,–,–,–,–,–
COC(=O)C(=Cc1cc(OC)c(OC)c(OC)c1-c1cc2c(cc1C1(C)OCCS1)OCO2)C(=O)OC (configuration not stated),> 100,> 100 µM,–,> 100 µM,75.1,> 100 µM,–,> 100 µM,–,–,–,–,–,–,–,–,–,–,–,–
O=C(Nc1cccc(Cl)c1)C(=O)C(C(=O)c1ccc2ccccc2c1)C1OC(=O)c2ccccc21 (configuration not stated),79.3,–,28.2,30.3 µM,89.6,80.9 µM,50.6,23.6 µM,–,–,–,–,–,–,–,–,–,–,–,–
O=[N+]([O-])c1ccc2occ3c2c1CCC3,> 100,> 100 µM,–,> 100 µM,> 100,> 100 µM,> 100,> 100 µM,–,–,–,–,–,–,–,–,–,–,–,–
CCC[CH2][Sn]([CH2]CCC)([O]C(=O)c1ccc(OC)c(OC)c1OC)[O][Sn]([CH2]CCC)([CH2]CCC)[O]C(=O)c1ccc(OC)c(OC)c1OC,0.171,0.94 µM,0.473,1.81 µM,1.54,0.271 µM,0.211,2.34 µM,0.0281,0.36,0.27,1.01,2.17 µM,0.604,0.334,0.0889,0.0392,0.0311,0.295 µM,0.0804
C#CC1/C(=C\C(=O)OC)CCCC1O (configuration not stated),> 100,> 100 µM,> 100,> 100 µM,> 100,> 100 µM,> 100,> 100 µM,–,–,–,–,–,–,–,–,–,–,–,–
Cc1cc2c(=O)c3ccccc3[nH]c2c(C(N)=O)c1C,> 100,> 100 µM,> 100,> 100 µM,–,> 100 µM,> 100,> 100 µM,–,–,–,–,–,–,–,–,–,–,–,–
CCOC(=O)c1ccc(/C(C)=N/NC(N)=S)cc1,> 100,> 100 µM,> 100,> 100 µM,> 100,> 100 µM,> 100,> 100 µM,–,–,–,–,–,–,–,–,–,–,–,–
COc1c(O)c2c(=O)cc3c4c5c(cc(=O)c6c(O)c(OC)c(CC(C)O)c(c(c1CC(C)O)c24)c65)OCO3 (configuration not stated),–,4.31 µM,8.3,2.94 µM,3.26,8.65 µM,8.04,4.44 µM,–,–,–,–,–,–,–,–,–,–,–,–
CC(C)C1=Cc2ccc3c(c2C(=O)C1=O)CCCC3(C)C,–,11 µM,6.27,24.9 µM,14.8,10.2 µM,16.6,–,–,–,–,–,–,–,–,–,–,–,–,–
COC(=O)C1CCCC2(C1)OCCO2 (configuration not stated),> 100,> 100 µM,> 100,> 100 µM,> 100,> 100 µM,> 100,> 100 µM,–,–,–,–,–,–,–,–,–,–,–,–
O=C1CCC2(c3ccc(Cl)cc3)Nc3cc(Cl)ccc3N12 (configuration not stated),21,7.32 µM,14.6,25.2 µM,22.3,19.6 µM,43.4,–,–,–,–,–,–,–,–,–,–,–,–,–
N#C/C(=C\c1ccc2ccccc2c1)C(=O)c1ccccc1,> 100,> 100 µM,> 100,> 78.5 µM,> 100,> 81.4 µM,> 100,68.8 µM,–,–,–,–,> 100 µM,–,–,–,–,–,> 100 µM,–
CCOC(=O)N[C@H]1CCc2cc(OC)c(OC)c(OC)c2-c2ccc(SC)c(=O)cc21,< 0.0117,< 0.01 µM,> 100,–,> 100,> 100 µM,> 100,> 100 µM,–,–,–,–,–,–,–,–,–,–,> 100 µM,–
C=CCCCCC1CCC2CCC(CCCCC=C)N12 (configuration not stated),31.3,30.6 µM,60.9,26.9 µM,37.5,32.9 µM,–,36.3 µM,–,–,–,–,–,–,–,–,–,–,–,–

Compound,TGI (DMS 114 small cell lung) [µM],TGI (SF-539 CNS),TGI (HOP-18 NSCLC) [µM],TGI (SK-MEL-5 melanoma),TGI (DMS 273 small cell lung) [µM],TGI (SW-620 colon),TGI (SNB-78 CNS) [µM],TGI (MOLT-4 leukemia),GI50 (DMS 114 small cell lung) [µM],GI50 (SF-539 CNS) [µM],GI50 (HOP-18 NSCLC) [µM],GI50 (DU-145 prostate) [µM],TGI (DU-145 prostate),GI50 (SK-MEL-5 melanoma) [µM],GI50 (DMS 273 small cell lung) [µM],GI50 (SW-620 colon) [µM],GI50 (SNB-78 CNS) [µM],GI50 (T-47D breast) [µM],TGI (T-47D breast),GI50 (MOLT-4 leukemia) [µM]
CC12CCC(=O)C[C@H]1CCC(OC=O)C2Br (some centres not stated),> 100,> 100 µM,> 100,> 100 µM,> 100,> 100 µM,–,> 100 µM,–,–,–,–,–,–,–,–,–,–,–,–
Cc1ccc2nc(/C(=C/c3ccc(/C=C(\NC(=O)c4ccccc4)c4nc5ccc(C)cc5[nH]4)c(C)c3)NC(=O)c3ccccc3)[nH]c2c1,69.6,28.9 µM,–,33.5 µM,> 100,> 100 µM,79.1,26.7 µM,–,–,–,–,–,–,–,–,–,–,–,–
COc1ccc(CCN(C)C2CCC(C#N)(c3ccc(OC)c(OC)c3)CC2)cc1OC (configuration not stated),–,> 100 µM,> 100,> 100 µM,> 100,> 100 µM,–,> 100 µM,–,–,–,–,–,–,–,–,–,–,–,–
COC(=O)/C(C#N)=C1\N=NNN1c1ccc(OC)cc1,> 100,> 100 µM,> 100,> 100 µM,> 100,> 100 µM,> 100,> 100 µM,–,–,–,–,–,–,–,–,–,–,–,–
CN(C)C(=S)/N=c1\sn(C)/c(=N\C(=S)N(C)C)n1C,–,> 100 µM,> 100,> 100 µM,> 100,> 100 µM,> 100,> 100 µM,–,–,–,–,–,–,–,–,–,–,–,–
COC(=O)/C(=C/c1ccc(OC)cc1)C(C(=O)O)=C1CCCC1,–,> 100 µM,–,> 100 µM,> 100,> 100 µM,> 100,> 100 µM,–,–,–,–,–,–,–,–,–,–,–,–
COC(=O)[C@]12CC[C@@H](C)[C@H](C)[C@@H]1C1=CC[C@@H]3[C@@]4(C)C[C@@H](O)[C@H](O)[C@@](C)(CO)C4=CC[C@@]3(C)[C@]1(C)CC2,–,34.6 µM,–,27.3 µM,–,34.1 µM,–,31.7 µM,–,17.7,–,16.3,32.6 µM,12.8,–,16.9,–,12.3,27.8 µM,15.5
CCCCCCCCCCCCCCCC(=O)OCCOCCOCCOCc1ccccc1,–,> 100 µM,> 100,> 100 µM,> 100,> 100 µM,> 100,–,–,–,–,–,–,–,–,–,–,–,–,–
COC(=O)/C(=N\NC(N)=S)C(C(=O)OC)C(=O)C(=O)Nc1ccc(C)cc1 (configuration not stated),> 100,> 100 µM,> 100,> 100 µM,> 100,> 100 µM,> 100,> 100 µM,–,–,–,–,–,–,–,–,–,–,–,–
COC1C(OC(=S)Nc2ccccc2)c2ccccc2N1C(C)=O (configuration not stated),> 100,> 100 µM,> 100,–,> 100,> 100 µM,> 100,> 100 µM,–,–,–,–,–,–,–,–,–,–,–,–
Cc1nc(Nc2cccnc2)sc1C(=O)/C=C/c1ccc(F)cc1,–,7.26 µM,–,13.4 µM,–,6.46 µM,–,> 100 µM,–,2.46,–,3.48,14.8 µM,3.64,–,2.46,–,2.25,> 100 µM,3.2
CC1=Cc2cccc(C)c2C(=O)C1=O,–,15.5 µM,2.79,10.7 µM,38.2,10.3 µM,> 100,–,–,–,–,–,–,–,–,–,–,–,–,–
CCCC(=O)Nc1cn(COC)c(C(=O)N2C[C@@H]3C[C@]34C2=CC(=O)c2[nH]cc(C)c24)n1,–,50 µM and 15.8 µM,–,12.8 µM and 11.8 µM,–,50 µM and 47.7 µM,–,3.8 µM and 21.2 µM,–,4.27,–,3.99,12.7 µM and > 100 µM,3.28,–,–,–,7.01,38.4 µM and 21.1 µM,1.19
O=C(/C(=C/c1ccc(Cl)cc1)c1ccccc1)c1ccccc1,37.2,31.3 µM,62.3,–,–,31.6 µM,68.7,47 µM,–,–,–,–,–,–,–,–,–,–,–,–
CCOC(=O)c1nc2c(OC)nn(O)cc-2c1[N+](=O)[O-],48.4,73.3 µM,34.9,–,–,29.1 µM,44.6,75.1 µM,–,–,–,–,–,–,–,–,–,–,–,–
N#Cc1nn(-c2cc(=O)[nH]c3ccc(Cl)cc23)c(N)c1C#N,–,> 100 µM,–,> 100 µM,–,> 100 µM,–,> 100 µM,–,> 100,–,> 100,> 100 µM,> 100,–,> 100,–,38.9,> 100 µM,> 100
Cc1c(N(C)C)ccc2c(=O)c3cccc(CC(=O)O)c3oc12,> 100,> 100 µM,> 100,> 100 µM,> 100,> 53.5 µM,> 100,> 100 µM,–,–,–,–,> 100 µM,–,–,–,–,–,> 100 µM,–
O=C1N=C2Sc3ccc4ccccc4c3N2C1=O,> 100,36.6 µM,33,58 µM,53.2,49.1 µM,79.5,> 100 µM,–,–,–,–,–,–,–,–,–,–,–,–
O=C(/C=C/c1ccc[nH]1)c1ccc(-n2ccc(C(F)(F)F)n2)cc1,–,> 100 µM,–,> 100 µM,–,> 100 µM,–,> 100 µM,–,2.53,–,> 100,> 100 µM,> 100,–,> 100,–,> 40.9,> 100 µM,13.8
COCC(OC)C(CC=C(C#N)C#N)OC (configuration not stated),> 100,> 100 µM,–,> 100 µM,> 100,> 100 µM,> 100,> 100 µM,–,–,–,–,–,–,–,–,–,–,–,–
